Measured values as given in publication PMC6497546 (Molecular cancer therapeutics, 2019).

Tested on: AR42J tumor
Assay: Combination efficacy study with 5-fluorouracil
Assay type: in vivo, mice
Settings: 5-fluorouracil alone, 15mg/kg once per week for nine weeks; post cell injection

O=c1[nH]cc(F)c(=O)[nH]1 [5-fluorouracil]
median survival: 2.4 weeks
